Assay results reported in the supplement of paper PMC8967900.

Key:
Assay in all cases: selective drug sensitivity score (sDSS, relative to normal bone marrow) (sDSS (score)); higher = more potent and effective on the cell line relative to normal bone marrow cells
Settings in all cases: 72 h
697 = tested on: 697
CCRF-HSB2 = tested on: CCRF-HSB2
COG-LL-317 = tested on: COG-LL-317
COG-LL-319h = tested on: COG-LL-319h
COG-LL-355h = tested on: COG-LL-355h
COG-LL-394h = tested on: COG-LL-394h
COG-LL-402h = tested on: COG-LL-402h
HAL-01 = tested on: HAL-01
KASUMI-9 = tested on: KASUMI-9
KOPN-8 = tested on: KOPN-8
MN-60 = tested on: MN-60
MOLT-14 = tested on: MOLT-14
MOLT-16 = tested on: MOLT-16
MOLT-4 = tested on: MOLT-4
NALM-16 = tested on: NALM-16
NALM-6 = tested on: NALM-6
P12-ICHIKAWA = tested on: P12-ICHIKAWA
P30-OHKUBO = tested on: P30-OHKUBO
PEER = tested on: PEER
SUP-B15 = tested on: SUP-B15
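Note: ALL cell lines in 384-well plates, five doses spanning 10,000-fold, each plate scaled between vehicle and 100 µmol/L benzalkonium chloride controls, sDSS an adapted area-under-curve metric.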

| SMILES | selective drug sensitivity score 697 | selective drug sensitivity score (CCRF-HSB2) | selective drug sensitivity score (COG-LL-317) | selective drug sensitivity score (COG-LL-319h) | selective drug sensitivity score (COG-LL-355h) | selective drug sensitivity score (COG-LL-394h) | selective drug sensitivity score (COG-LL-402h) | selective drug sensitivity score (HAL-01) | selective drug sensitivity score (KASUMI-9) | selective drug sensitivity score (KOPN-8) | selective drug sensitivity score (MN-60) | selective drug sensitivity score (MOLT-14) | selective drug sensitivity score (MOLT-16) | selective drug sensitivity score (MOLT-4) | selective drug sensitivity score (NALM-16) | selective drug sensitivity score (NALM-6) | selective drug sensitivity score (P12-ICHIKAWA) | selective drug sensitivity score (P30-OHKUBO) | selective drug sensitivity score (PEER) | selective drug sensitivity score (SUP-B15) |
| --- | --- | --- | --- | --- | --- | --- | --- | --- | --- | --- | --- | --- | --- | --- | --- | --- | --- | --- | --- | --- |
| COCCNCc1ccc(-c2cc3nccc(Oc4ccc(NC(=O)C5(C(=O)Nc6ccc(F)cc6)CC5)cc4F)c3s2)nc1 [Sitravatinib] (top concentration 2500 nM) | 1.58 | 9.28 | -0.42 | -0.32 | 2.58 | 3.08 | 1.78 | 5.28 | 3.58 | 8.08 | 0.78 | 1.08 | -0.42 | 0.78 | 2.78 | -0.12 | 0.08 | 5.78 | 7.38 | 8.68 |
| O=C(Nc1c[nH]nc1-c1nc2ccc(CN3CCOCC3)cc2[nH]1)NC1CC1 [AT9283] (top concentration 1000 nM) | 12.1 | 11.4 | 14.2 | 11.3 | 6.22 | 1.02 | 7.72 | 1.92 | 10.7 | 10.3 | 1.02 | 13.8 | 8.22 | 3.72 | -0.68 | 6.82 | 13 | 16 | 15.9 | 12.6 |
| O=C1CCc2c(Oc3ccc4c(c3)[C@@H]3[C@H](O4)[C@H]3c3nc4cc(C(F)(F)F)ccc4[nH]3)ccnc2N1 [Lifirafenib (BGB-283)] (top concentration 10000 nM) | 6.68 | 8.88 | 2.28 | -0.52 | 4.78 | 6.88 | 2.38 | 6.48 | 5.58 | 13.1 | 1.48 | 4.58 | 3.98 | 1.38 | -0.02 | 5.58 | 3.18 | 5.28 | 10.7 | 17 |
| CC(C)(C)Cn1c(N)nc2ccc(-c3[nH]c(C(C)(C)C)nc3-c3ccc(F)cc3)nc21 [Ralimetinib] (top concentration 10000 nM) | 5.66 | 1.26 | 0.96 | 4.06 | 7.86 | 4.16 | 2.26 | -0.74 | 8.76 | 4.26 | -0.14 | 6.96 | 12.6 | 8.36 | -0.84 | -0.24 | 1.86 | 4.66 | 2.26 | 7.36 |
| COC(=O)N[C@@H](C)CNc1nccc(-c2cn(C(C)C)nc2-c2cc(Cl)cc(NS(C)(=O)=O)c2F)n1 [Encorafenib] (top concentration 1000 nM) | 8 | 1.8 | 0 | 0 | 1.4 | 0.2 | 0 | 0 | 1.4 | 16.2 | 0 | 0 | 1 | 0 | 0 | 3.5 | 1.7 | 1.3 | 0.9 | 0.9 |
| NC(=O)/C(=C/n1cnc(-c2cc(C(F)(F)F)cc(C(F)(F)F)c2)n1)c1cncnc1 [Eltanexor] (top concentration 10000 nM) | 13.2 | 12 | 14.7 | 8.46 | 14.5 | 4.66 | 12.1 | 5.46 | 11.1 | 14.2 | 0.06 | 15.4 | 14.4 | 11.4 | -0.84 | 10.6 | 7.96 | 11.8 | 7.56 | 13.7 |
| CN1CCC(CNc2ccc3ncc(-c4cccc(OC(F)(F)F)c4)n3n2)CC1 [SGI-1776] (top concentration 10000 nM) | -0.68 | 3.12 | 0.02 | -1.28 | 1.72 | 0.82 | -2.48 | 1.92 | -1.68 | -0.78 | -3.78 | 0.32 | -3.28 | -2.88 | -1.38 | -3.08 | -2.98 | 0.12 | -0.58 | -0.88 |
| C[C@@]1(C(=O)Nc2ccc(F)nc2)CCCN1c1nc(Nc2cc(C3CC3)n[nH]2)c2cccn2n1 (top concentration 10000 nM) | 11.8 | 12.1 | 12.5 | 8.78 | 12.1 | 5.98 | 8.18 | 2.58 | 8.08 | 4.68 | -4.62 | 12.7 | 12.5 | 8.68 | 2.88 | 4.08 | 11.3 | 11.2 | 11.2 | 8.98 |
| NC1(c2ccc(-c3nc4ccn5c(=O)[nH]nc5c4cc3-c3ccccc3)cc2)CCC1 [MK-2206] (top concentration 1000 nM) | 3.76 | 3.26 | 3.56 | 3.56 | 5.06 | -1.64 | 2.76 | 6.96 | 4.36 | 3.46 | -1.64 | -1.64 | 6.16 | 2.76 | 2.46 | 2.76 | 1.66 | 6.36 | -1.64 | -0.44 |
| Nc1cc(C(F)(F)F)c(-c2cc(N3CCOCC3)nc(N3CCOCC3)n2)cn1 [Buparlisib] (top concentration 10000 nM) | 7.38 | 4.18 | 1.08 | 4.58 | 5.68 | 0.38 | 5.58 | 4.98 | 6.58 | 7.28 | 2.68 | 5.48 | 4.08 | 4.38 | 3.98 | 4.78 | 3.28 | 7.28 | 6.48 | 4.38 |
